# Details: a range is the spread between reports
row,SMILES,melting point
1,Cc1cccc([N+](=O)[O-])c1N,95 to 96 °C
2,Clc1cccc(Cl)n1,86 to 88 °C
3,CCOC(=O)C(NC(C)=O)C(=O)OCC,96.3 to 98 °C
4,CC(=O)CC(=O)Nc1ccccc1,85 to 86 °C
5,c1ccc2cc3c(cc2c1)-c1cccc2cccc-3c12,216 to 217 °C
6,CCCCCCCCP(=O)(CCCCCCCC)CCCCCCCC,52 to 55 °C
7,Cc1cccc(O)c1C,71.5 to 75 °C
8,CN(C)c1ccc([N+](=O)[O-])cc1,164 to 165 °C
9,CCCCCI,-86 to -85.6 °C
10,CCCCCCCCCC(=O)O,31 to 32 °C
11,NCCNCCN,-40 to -35 °C
12,CCCC(=O)OCC,-98 to -93 °C
13,CC1(C)C2CC[C@@]1(C)C(=O)C2,178 to 180 °C
14,Cc1ccccc1-c1ccccc1C,18 to 19.5 °C
15,COc1cccc(OC)c1C,39 to 40 °C
16,CCCCCCCCCC(=O)Cl,-35 to -34.5 °C
17,COc1ccc(C(=O)O)cc1OC,180 to 181 °C
18,CCCCCCCCCCCCCCCCCCCCCCCCCCCCCCCC,69.7 to 70 °C
19,CCCCCC(=O)O,-4 to -1.9 °C
20,O=Cc1ccccc1C(=O)O,97 to 99 °C
21,Cc1ccc2ccccc2n1,-2 to -1.5 °C
22,Cc1cccc2c(C)cccc12,80 to 82 °C
23,CCCCCCCCCC,-30 to -29.7 °C
24,Cc1ccc([N+](=O)[O-])cc1C,29 to 31 °C

row,SMILES,melting point
1,Cc1cccc(C)c1C,-25.4 to -25 °C
2,Cc1ccnc(-c2cc(C)ccn2)c1,174 to 175 °C
3,CC(C)(Oc1ccc(Cl)cc1)C(=O)O,118 to 120 °C
4,CC(C)=O,-95 to -94 °C
5,CC(=O)c1ccco1,29 to 33 °C
6,O=CNc1ccccc1,46 to 47 °C
7,Cc1ccnc(N)c1,99 to 100 °C
8,O=C(O)c1ccc(O)cc1O,225 to 226 °C
9,CCCCCCCCCCCCCCCCC(=O)O,60 to 61.3 °C
10,Cc1n[nH]c(=O)[nH]c1=O,211 to 213 °C
11,C1COCCN1,-5 to -4.8 °C
12,NCc1ccncc1,-8 to -7.6 °C
13,CCCCCCCCCCCCOC(=O)c1cc(O)c(O)c(O)c1,96.5 to 97 °C
14,ClC1=C(Cl)C2(Cl)C3C(Cl)C(Cl)CC3C1(Cl)C2(Cl)Cl (stereo unspecified),104 to 106 °C
15,CCCCCCCCC(=O)Cl,-61 to -60.5 °C
16,NC1CCCCC1,-18 to -17 °C
17,CNC(=O)Oc1cccc2c1OC(C)(C)C2,151 to 152 °C
18,Cc1csc(N)n1,44 to 45.5 °C
19,c1ccc2c(c1)CCc1ccccc1-2,34 to 34.5 °C
20,CCc1ccccc1Cl,-83 to -82.7 °C
21,CO,-98 to -97.5 °C
22,CCCCCCCCCCCCCCCCBr,17 to 18 °C
23,O=C(O)/C=C/c1ccccc1,133 to 135 °C
24,CCCc1ccc(O)cc1,21 to 22 °C

row,SMILES,melting point
1,CCCCCCCCCCBr,-30 to -29 °C
2,CCCI,-101 °C
3,CC[Si](CC)(CC)CC,-82.5 to -82 °C
4,CCc1c(C)cccc1C,-16.2 to -16 °C
5,N#CCC#N,32 to 34 °C
6,O=C(O)c1cc(F)ccc1F,130 to 133 °C
7,CCCCCCCCCCCCC(=O)O,41.5 to 44.5 °C
8,O=C(O)C(F)(F)C(F)(F)C(F)(F)F,-18 to -17.5 °C
9,CCOS(=O)(=O)c1ccc(C)cc1,32 to 34.5 °C
10,Cc1c(N)cccc1[N+](=O)[O-],90 to 92 °C
11,CCCCCCCCCCCCN(C)C,-20 to -15 °C
12,CC(C)C(C)(C)O,-14 to -10 °C
13,Clc1cccc(Cl)c1Cl,52.6 to 55 °C
14,CS(C)=O,18 to 18.5 °C
15,Oc1ccc2c(c1)CCCC2,57 to 62 °C
16,O=C1Cc2ccccc2N1,126 to 128 °C
17,CCCCC=O,-92 to -91 °C
18,NNc1ccccc1,19 to 19.6 °C
19,Cc1cc(Cl)nc(Cl)n1,46 to 46.5 °C
20,Cc1cc(O)c2ccccc2n1,234 to 235 °C
21,C[C@H]1CC[C@@H](O)CC1,-10 to -9.2 °C
22,COC(=O)CCl,-32.1 to -32 °C
23,c1csc(-c2cccs2)c1,32 to 33 °C

# — a melting point compilation (Tetko et al.)
